What was measured:
[1] = Pharmacokinetic studies of 35S-labelled compounds after iv administration; conditions: rat; for AUC0-12 h / C0 / Cl* (apparent) / Vd* (apparent) / t1/2* (apparent): in vivo, iv, 2.5 mg/kg; for k* (apparent): iv bolus 2.5 mg/kg
Procedure: The polyol precursors for PG500, 501, 503, 504, 506 and PI-88 (2 mg of each) were desiccated under vacuum over P2O5 for 3 days. Into each vial was syringed 50 μL of a stock solution of 1.77 mg (2.0 mCi) of ^35SO3.pyridine complex and 2 mg SO3.Me3N in 300 μL of anhydrous DMF (Aldrich, redried over freshly ignited 3 A molecular sieves). A further 600 μL of anhydrous DMF was added to the SO3 vial and was distributed to each sample vial. The samples were heated to 60° for 66 hr. SO3.Me3N (14 mg in 300 μL anhydrous DMF) was added to each vessel and the resulting solutions were heated to 60° overnight. The vials were cooled to room temperature and stored at −80° C. awaiting purification.
Each sample was quenched by addition of Na2CO3 (sat. aqu. adjusted to pH 8-9), evaporated to dryness and subjected to SEC (Biogel P2, 2.6×90 cm, flow rate 30 mL/hr, 5 min/fraction). Fractions containing desired material were detected using a G-M counter and DMB test followed by CE.
Male Sprague Dawley rats (250-350 g) were used. The animals were allowed free access to food and water before and during the experiments, during which they were maintained unrestrained in metabolism cages. Rats were anaesthetized with isoflurane (Forthane®). A catheter was inserted in the external jugular vein via an incision in the neck, and was passed under the skin to a second incision in the skin of the back (midline vicinity of the scapulae). This was then exteriorized with the protection of a light metal spring. The incision was closed and the spring fixed to the skin with Michel sutures so that the rats had full range of movement. The animals were carefully monitored during recovery (1-4 h).
All doses were administered as a bolus intravenous injection of 2.5 mg/kg in a dose volume of 2 mL/kg. The total amount of radioactivity administered to each rat was 0.5-10 μCi. The dose level used in this study is 10-fold lower than the no-effect dose previously established for acute toxicity of PI-88. Blood samples (˜250 μL) were collected predose and at 5, 15, 30, 45 min, and 1, 1.5, 2, 4, 8, 12, 24, 36 and 48 h after dosing. The blood samples were immediately centrifuged and the plasma collected. At completion of the experiments, the animals were killed by a lethal overdose of IV pentobarbitone anaesthetic (Nembutal®). Urine was collected from each animal at intervals of 0-12 h, 12-24 h and 24-48 h after dosing. Cage washings (˜15 mL of deionised water) were also collected. At the end of the experiment, bladder contents were aspirated from each animal and added to the 24-48 h voidings. Feces were collected over the same time intervals as the urine.
Aliquots of plasma (100 μL), urine and cage washings (500 μL) were transferred directly to 6 mL polypropylene scintillation vials for determination of radioactivity. Feces collected during each time period (from one animal dosed with each compound) were weighed and homogenised in 4 volumes of deionised water using a mechanical homogeniser. Approximately 1 g (accurately weighed) of this slurry was transferred to a 20 mL glass scintillation vial, 2 mL of tissue solubiliser added and the vials capped and incubated at 60° C. for at least 24 h. Radioactivity was measured following mixing of samples with Packard Ultima Gold liquid scintillation counting cocktail (2.0 mL for plasma and dose, 5.0 mL for urine and cage washings, 10 mL for feces). Counting was conducted on a Packard Tr-Carb liquid scintillation counter. Any result less than three times the background was considered less than the lower limit of quantitation not used in calculations. Plasma, urine and cage washings were counted in triplicate within 5 days of collection and were not corrected for radiochemical decay. Feces were processed as a batch at the completion of the study and the counts from these samples were corrected for radiochemical decay.

FGF-2 = FGF-2 (Homo sapiens, UniProt P09038); test: SPR based solution affinity assay, growth factor binding (FGF-2); conditions: heparin-coated sensorchip, HBS-EP buffer containing 0.3 M NaCl, 25° C.; read-out: Kd bFGF
Procedure: Binding affinities of ligands for the growth factors FGF-1, FGF-2 and VEGF were measured using a surface plasmon resonance (SPR) based solution affinity assay. The principle of the assay is that heparin immobilised on a sensorchip surface distinguishes between free and bound growth factor in an equilibrated solution of the growth factor and a ligand. Upon injection of the solution, the free growth factor binds to the immobilised heparin, is detected as an increase in the SPR response and its concentration thus determined. A decrease in the free growth factor concentration as a function of the ligand concentration allows for the calculation of the dissociation constant, Kd. It is important to note that ligand binding to the growth factors can only be detected when the interaction involves the HS binding site, thus eliminating the chance of evaluating non-specific binding to other sites on the protein. A 1:1 stoichiometry has been assumed for all protein:ligand interactions.
For the testing of growth factor binding activity, heparin-coated sensorchips were used. Their preparation, via immobilisation of biotinylated BSA-heparin on a streptavidin-coated sensorchip, has been described.[5] Heparin has also been immobilised via aldehyde coupling using either adipic acid dihydrazide or 1,4-diaminobutane. […] Ligands binding to FGF-1 and VEGF were measured in HBS-EP buffer (10 mM HEPES, pH 7.4, 150 mM NaCl, 3.0 mM EDTA and 0.005% (v/v) polysorbate 20), while binding to FGF-2 was measured in HBS-EP buffer containing 0.3 M NaCl.[5] […] For each assay mixture, 50-200 μL of solution was injected at 5-40 μL/min and the relative binding response measured. […]
Sensorgram data were analysed using the BIAevaluation software (BIAcore). […]
[formula] and the binding equation[5] can be expressed as
The Kd values given are the values fit, using the binding equation, to a plot of [P] versus [L]total. Where Kd values were measured in duplicate, the values represent the average of the duplicate measurements. […]

Sequence of FGF-2 (P09038 143-288, species assumed): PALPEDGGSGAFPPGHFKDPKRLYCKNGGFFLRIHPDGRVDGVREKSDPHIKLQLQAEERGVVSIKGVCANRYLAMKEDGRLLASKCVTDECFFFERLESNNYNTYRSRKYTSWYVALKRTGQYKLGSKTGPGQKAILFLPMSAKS

Row | Substance | AUC0-12 h [1] [μg-eq/h · mL] | C0 [1] [μg-eq/mL] | Cl* (apparent) [1] [mL/min/kg] | Vd* (apparent) [1] [mL] | t1/2* (apparent) [1] [min] | k* (apparent) [1] [h⁻¹] | Kd (FGF-2) [nM]
1 | Benzyl Glycoside Polysulfate [PG500] | 12.6 ± 1.2 | 20.5 ± 1.3 | 3.32 ± 0.22 | 38.4 ± 3.8 | 49.8 ± 1.2 | 0.836 ± 0.024 | 86 ± 7
2 | Octyl Glycoside Polysulfate [PG501] | 29.7 ± 3.4 | 35.6 ± 3.1 | 1.39 ± 0.152 | 22.9 ± 2.2 | 66 ± 5.4 | 0.633 ± 0.053 | 68.3 ± 2.9

Reference: patent US8173606B2, “Sulfated oligosaccharide derivatives” (Progen Pharmaceuticals Limited, priority 2004, dated 2012)
